{"source": "patent US20090291088A1", "about": "“THERAPEUTIC COMBINATIONS OF ANTI-IGF-1R ANTIBODIES AND OTHER COMPOUNDS” (Biogen Idec MA Inc., priority 2008, published 2009)", "key": {"[1]": {"tested_on": "NSCLC, pancreatic and colon cancer cell lines", "test": "Cell viability, M13-C06 and PI-103 alone or combined", "assay_type": "cell-based", "settings": "PI-103, colon cancer cell lines", "description": "Cells were plated at 5000 cells/well in 96-well tissue culture plates in cell culture medium containing 10% fetal bovine serum, then treated with M13-C06 or PI-103 (American Custom Chemicals Corp. cat# 371935-74-9) as single agents or in combination at 1:3 serial dilutions with a starting concentration of 200 nM and 10 microM for M13-C06 and PI-103 respectively. The cell viability was determined three or five days later by measuring ATP levels with CELL TITER GLO™ reagent from Promega."}, "[2]": {"tested_on": "AKT and MAPK phosphorylation in NSCLC cell lines", "test": "Western blot of AKT and MAPK phosphorylation, M13-C06 and erlotinib", "assay_type": "cell-based", "settings": "10 microM erlotinib, 3 hours", "description": "We set to determine the molecular mechanisms underlying the observed enhanced anti-tumor effect of combining erlotinib and M13-C06 in NSCLC cell lines. AKT and MAPK activation status was evaluated after treatment with erlotinib and M13-C06 as single agents or in combination, since AKT and MAPK are common downstream signaling targets of IGF-1R and EGFR. Tumor cell lines were plated onto 6-well plates at 1.2×10^6 per well, in RPMI+10% FBS media, and allowed to adhere overnight. The following day, media from wells was removed and replaced with 100 nM M13-C06 or IDEC151 (human IgG4 isotype control antibody) in combination with either media (single agent control) or 10 microM erlotinib in media. Assay plates were incubated in a 37° C., 5% C02 humidified incubator for 3 hours, and cellular proteins were extracted in cell lysis buffer (Cell Signaling Technology, cat# 9803 (Danvers, Mass. USA)). Protein concentrations in lysates were measured using a BCA protein assay kit (Pierce, cat# 23227 (Pierce Biotechnology, Inc., Rockford, Ill.)) and equal amount of proteins were run on a NUPAGE 4-12% Tris-Bis gel, and transferred to a nitrocellulose membrane (0.45 μm pore). Phosphorylation was detected by treatment with antibodies specific for phospho-AKT, total AKT, phospho-MAPK, or total MAPK (Cell Signaling technology, cat #9271, 9272, 9101, 9102), followed by treatment with anti-Rabbit-IgG-HRP (Southern Biotech. cat# 4050-05). Blots were developed with Supersignal Western Substrate Kit (Pierce, cat#34095) and the chemiluminescent image was captured on a BioRad Max2 imager. […] In general, the effects of M13-C06 and erlotinib on downstream signaling molecules AKT and MAPK correlate with their effects on cell growth as shown in FIG. 41."}, "[3]": {"tested_on": "NSCLC, pancreatic and colon cancer cell lines", "test": "Cell viability, M13-C06 and erlotinib alone or combined", "assay_type": "cell-based", "description": "M13-C06 (human IgG4 Pagly anti-IGF-1R antibody) is currently in clinical development for multiple solid tumors. We evaluated the effect of anti-IGF-1R M13-C06 in combination with erlotinib (American Custom Chemicals Corp., cat# 183319-69-9 (San Diego, Calif.)) on the growth (proliferation) of a panel of NSCLC, pancreatic and colon cancer cell lines. Cells were plated at 5000 cells per well in 96-well tissue culture plates in RPMI-1640 (containing 10% fetal bovine serum (FBS, Hyclone cat# Sh30071.03)) and then treated with M13-C06 or erlotinib as single agents or in combination at 1:3 serial dilutions with a starting concentration of 200 nM and 20 microM for M13-C06 and for erlotinib respectively."}, "[4]": {"tested_on": "MiaPaCa2 pancreatic carcinoma cells", "test": "MiaPaCa2 pancreatic carcinoma xenograft", "assay_type": "in vivo, mouse", "settings": "gemcitabine alone, 20 mg/kg, Q4D×3", "excerpt": "Female SCID mice were innoculated in the right flank with 2×10^6 MiaPaCa2 pancreatic carcinoma cells in 50% Matrigel (BD Biosciences)/PBS."}, "[5]": {"tested_on": "NSCLC, pancreatic, colon cancer and sarcoma cell lines", "test": "Cell viability, M13-C06 and rapamycin alone or combined", "assay_type": "cell-based", "description": "For cell growth assays, cells were plated at 5000 cells per well in 96-well tissue culture plates in RPMI-1640 containing 10% fetal bovine serum (for most cell lines) or McCoy's 5A plus 15% FBS (for sarcoma cell lines). Cells were treated with M13-C06 and rapamycin (American Custom Chemicals Corp. cat# 53123-88-9) as a single agent or in combination at 1:3 serial dilutions with a starting concentration of 200 nM for M13-C06 and 100 nM or 1 microM for rapamycin for three or five days. Cell viability was determined by measuring ATP levels with CELL TITER GLO™ reagent."}, "[6]": {"tested_on": "AKT and S6K signaling in sarcoma and lung tumor cell lines", "test": "Western blot of AKT and S6K phosphorylation, M13-C06 and rapamycin", "assay_type": "cell-based", "settings": "100 nM rapamycin, 3 hours", "description": "It has been reported that rapamycin inhibition of mTOR induces AKT activation through S6K (S6 kinase) and IGF-1R/IRS-1 (Insulin Receptor Substrate-1) dependent feedback loop (O'Reilly, et al., Cancer Research, vol. 66, p. 1500-1508 (2006)). We therefore examined the effect of M13-C06 and rapamycin on AKT and S6K signaling in selected sarcoma and lung tumor cell lines in which M13-C06 enhanced the anti-tumor activity of rapamycin. Cells were plated onto 12 well plates at 6×10^5 per well, in McCoy's 5A medium plus 15% FBS for sarcoma and RPMI-1640 plus 10% FBS for NSCLC cell lines, and allowed to adhere overnight. The following day, media from wells was removed and replaced with 100 nM M13-C06 or IDEC151 in combination with either media (single agent control) or 100 nM rapamycin in media. Assay plates were incubated in a 37° C., 5% CO2 humidified incubator for 3 hours, cells were lysed in Cell Signaling Lysis Buffer (Cell Signal Technologies, #9803), and the lysates were normalized by protein concentration and run on a NUPAGE 4-12% Tris-Bis gel, then transferred to a nitrocellulose membrane. Phosphorylation status of AKT and S6K was detected by treatment with antibodies specific for phospho-AKT, total AKT phospho-S6K, or total S6K (Cell Signaling technology, cat# 2215, 2217), then by treatment with anti-Rabbit-IgG-HRP (Cell Signaling Biotechnology, cat# 7071). […]"}}}
{"compound": "Oc1cccc(-c2nc(N3CCOCC3)c3oc4ncccc4c3n2)c1", "note": "[PI-103, 3-[4-(4-morpholinyl)pyrido[3′,2′:4,5]furo[3,2-d]pyrimidin-2-yl]-phenol, reference compound]", "values": [{"measurement": "cell growth", "setting": "[1]", "result": "None of the colon cancer cell lines appeared to be sensitive to PI-103 inhibition"}]}
{"compound": "C#Cc1cccc(Nc2ncnc3cc(OCCOC)c(OCCOC)cc23)c1", "note": "[erlotinib, N-(3-ethynylphenyl)-6,7-bis(2-methoxyethoxy)quinazolin-4-amine, reference compound]", "values": [{"measurement": "phosphorylation of MAPK", "setting": "[2]; A549 cells", "result": "partial inhibition of MAPK phosphorylation"}, {"measurement": "phosphorylation of MAPK", "setting": "[2]; H322M cells", "result": "completely abolished detectable phosphorylation of MAPK"}, {"measurement": "phosphorylation of MAPK", "setting": "[2]; H1299 and NCI-H23 cells", "result": "little effect"}, {"measurement": "cell growth", "setting": "[3]; erlotinib single agent, 7 NSCLC cell lines, five days", "result": "substantially inhibited the growth of only H322M and H1650 cell lines"}, {"measurement": "cell growth", "setting": "[3]; erlotinib, 5 colon cancer cell lines", "result": "none of 5 colon cancer cell lines showed substantial growth inhibition"}]}
{"compound": "Nc1ccn([C@@H]2O[C@H](CO)[C@@H](O)C2(F)F)c(=O)n1", "note": "[gemcitabine]", "values": [{"measurement": "tumor growth", "setting": "[4]", "result": "inhibited tumor growth"}]}
{"compound": "(16Z,24Z,26Z,28Z)-1,18-dihydroxy-12-[1-(4-hydroxy-3-methoxycyclohexyl)propan-2-yl]-19-methoxy-15,17,21,23,29,35-hexamethyl-30-(5-methylthiophen-2-yl)-11,36-dioxa-4-azatricyclo[30.3.1.0̂ {4,9}]hexatriaconta-16,24,26,28-tetraene-2,3,10,14,20-pentone [rapamycin, reference compound]", "values": [{"measurement": "cell growth", "setting": "[5]; rapamycin, colon cancer cell lines", "result": "most colon cancer cell line tested did not respond well to rapamycin"}, {"measurement": "cell growth", "setting": "[5]; single agent, SJSA-1 cells", "result": "did not respond"}, {"measurement": "phosphorylation of S6K", "setting": "[6]", "result": "inhibited phosphorylation of S6K"}, {"measurement": "AKT phosphorylation", "setting": "[6]; all cell lines tested", "result": "induced AKT phosphorylation in all cell lines tested"}]}
